Test results reported in patent publication US12559492B2, “BRAF degraders” (C4 Therapeutics, Inc., priority 2020, dated 2026).

Target: BRAF^V600E protein (Homo sapiens, UniProt P15056, V600E)
Test: HiBiT cellular BRAF V600E degradation assay
Format: cell-based
Conditions: 24 h incubation; for DC50: A375.10 cells (HiBiT tag knocked in at N-terminal of BRAF V600E), concentration at which 50% of total cellular BRAF V600E is degraded; for Emax: read-out: HiBit 24 h Emax
[1] = A375.10 cells, Emax = amount of residual protein remaining in the cell after compound treatment

BRAF^V600E protein, sequence (P15056 whole entry V600E): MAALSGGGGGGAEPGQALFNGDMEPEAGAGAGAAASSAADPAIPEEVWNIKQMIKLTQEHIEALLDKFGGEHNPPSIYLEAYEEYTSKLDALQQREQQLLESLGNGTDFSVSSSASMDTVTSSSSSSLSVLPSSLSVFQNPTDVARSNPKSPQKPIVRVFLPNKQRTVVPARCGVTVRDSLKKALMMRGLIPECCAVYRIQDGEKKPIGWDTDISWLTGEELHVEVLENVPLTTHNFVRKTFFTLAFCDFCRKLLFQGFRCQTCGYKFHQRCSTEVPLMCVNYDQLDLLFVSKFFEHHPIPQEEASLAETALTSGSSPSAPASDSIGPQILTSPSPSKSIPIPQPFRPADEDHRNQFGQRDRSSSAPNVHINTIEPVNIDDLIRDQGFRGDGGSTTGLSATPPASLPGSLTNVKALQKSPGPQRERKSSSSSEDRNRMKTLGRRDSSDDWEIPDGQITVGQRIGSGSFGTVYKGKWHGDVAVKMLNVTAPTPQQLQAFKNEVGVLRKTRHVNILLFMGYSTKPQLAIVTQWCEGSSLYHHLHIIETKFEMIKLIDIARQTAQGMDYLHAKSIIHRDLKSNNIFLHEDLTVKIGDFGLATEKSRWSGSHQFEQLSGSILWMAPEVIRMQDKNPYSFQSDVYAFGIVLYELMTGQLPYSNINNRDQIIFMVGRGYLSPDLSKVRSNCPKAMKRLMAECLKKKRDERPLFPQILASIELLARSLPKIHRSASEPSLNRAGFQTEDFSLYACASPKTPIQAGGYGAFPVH

| Compound | DC50 | Emax [1] | HiBit 24 h Emax [1] |
| --- | --- | --- | --- |
| CCN(C)S(=O)(=O)Nc1ccc(F)c(C(=O)c2c[nH]c3ncc(-c4cnc(N5CCN(C(=O)CN6CCC(c7ccc(NC8CCC(=O)NC8=O)cc7C#N)CC6)CC5)nc4)cc23)c1F (stereo not shown) [Example 40, 5-[2-[4-[2-[4-[2-cyano-4-[(2,6-dioxo-3-piperidyl)amino]phenyl]-1-piperidyl]acetyl]piperazin-1-yl]pyrimidin-5-yl]-3-[3-[[ethyl(methyl)sulfamoyl]amino]-2,6-difluoro-benzoyl]-1H-pyrrolo[2,3-b]pyridine] | 11.7 nM | 8.42% |  |
| CCN(C)S(=O)(=O)Nc1ccc(F)c(C(=O)c2c[nH]c3ncc(-c4cnc(N5CCN(C(=O)CC6(O)CCN(c7ccc(C8CCC(=O)NC8=O)cc7F)CC6)CC5)nc4)cc23)c1F (racemic) [Example 158, 5-[2-[4-[2-[1-[4-(2,6-dioxo-3-piperidyl)-2-fluoro-phenyl]-4-hydroxy-4-piperidyl]acetyl]piperazin-1-yl]pyrimidin-5-yl]-3-[3-[[ethyl(methyl)sulfamoyl]amino]-2,6-difluoro-benzoyl]-1H-pyrrolo[2,3-b]pyridine] | 2.73 nM | 9.38% |  |
| O=C1CCC(Oc2ccc(C3CCN(CC(=O)N4CCN(c5ccc(-c6cnc7[nH]cc(C(=O)c8c(F)ccc(NS(=O)(=O)N9CCCC9)c8F)c7c6)cc5)CC4)CC3)cc2)C(=O)N1 (stereo not shown) [Example A50, N-[3-[5-[4-[4-[2-[4-[4-(2,6-Dioxopiperidin-3-yl)oxyphenyl]piperidin-1-yl]acetyl]piperazin-1-yl]phenyl]-1H-pyrrolo[2,3-b]pyridine-3-carbonyl]-2,4-difluorophenyl]pyrrolidine-1-sulfonamide] | 15 nM | 12% |  |
| O=C1CCC(Nc2ccc(C3CCN(CC(=O)N4[C@@H]5CCC[C@H]4CN(c4ccc(-c6cnc7[nH]cc(C(=O)c8c(F)ccc(NS(=O)(=O)N9CCCC9)c8F)c7c6)cn4)C5)CC3)cc2)C(=O)N1 (mixture of isomers) [Example A84, N-[2,4-Difluoro-3-[5-[6-[rac-(1R,5S)-9-[2-[4-[4-[(2,6-dioxopiperidin-3-yl)amino]phenyl]piperidin-1-yl]acetyl]-3,9-diazabicyclo[3.3.1]nonan-3-yl]pyridin-3-yl]-1H-pyrrolo[2,3-b]pyridine-3-carbonyl]phenyl]pyrrolidine-1-sulfonamide] | 11 nM | 11% |  |
| CCN(C)S(=O)(=O)Nc1cccc(C(=O)c2c[nH]c3ncc(-c4ccc(N5CCN(C(=O)CN6CCC(c7ccc(OC8CCC(=O)NC8=O)cc7)CC6)CC5)nc4)cc23)c1F (stereo not shown) [Example 108, 5-[6-[4-[2-[4-[4-[(2,6-dioxo-3-piperidyl)oxy]phenyl]-1-piperidyl]acetyl]piperazin-1-yl]-3-pyridyl]-3-[3-[[ethyl(methyl)sulfamoyl]amino]-2-fluoro-benzoyl]-1H-pyrrolo[2,3-b]pyridine] | 5.6 nM | 11.4% |  |
| CCN(C)S(=O)(=O)Nc1ccc(F)c(C(=O)c2c[nH]c3ncc(-c4ccc(N5CCN(C(=O)CC6(O)CCN(c7ccc8c(N9CCC(=O)NC9=O)nn(C)c8c7)CC6)CC5)nc4)cc23)c1F [Example 193, 3-(2,4-dioxohexahydropyrimidin-1-yl)-6-[4-[2-[4-[5-[3-[3-[[ethyl(methyl)sulfamoyl]amino]-2,6-difluoro-benzoyl]-1H-pyrrolo[2,3-b]pyridin-5-yl]-2-pyridyl]piperazin-1-yl]-2-oxo-ethyl]-4-hydroxy-1-piperidyl]-1-methyl-indazole] | 1.7 nM | 7.39% |  |
| CCN(C)S(=O)(=O)Nc1ccc(F)c(C(=O)c2c[nH]c3ncc(-c4cnc(N5CCN(C(=O)CN6CCC(c7ccc(NC8CCC(=O)NC8=O)c(F)c7)CC6)CC5)nc4)cc23)c1F (stereo not shown) [Example 29, 5-[2-[4-[2-[4-[4-[(2,6-dioxo-3-piperidyl)amino]-3-fluoro-phenyl]-1-piperidyl]acetyl]piperazin-1-yl]pyrimidin-5-yl]-3-[3-[[ethyl(methyl)sulfamoyl]amino]-2,6-difluoro-benzoyl]-1H-pyrrolo[2,3-b]pyridine] | 2.76 nM | 7.67% |  |
| O=C1CCC(Oc2ccc(C3CCN(CC(=O)N4CC5(C4)CN(c4ncc(-c6cnc7[nH]cc(C(=O)c8c(F)ccc(NS(=O)(=O)N9CCCC9)c8F)c7c6)cn4)C5)CC3)cc2)C(=O)N1 (stereo not shown) [Example A119, N-[3-[5-[2-[2-[2-[4-[4-(2,6-Dioxopiperidin-3-yl)oxyphenyl]piperidin-1-yl]acetyl]-2,6-diazaspiro[3.3]heptan-6-yl]pyrimidin-5-yl]-1H-pyrrolo[2,3-b]pyridine-3-carbonyl]-2,4-difluorophenyl]pyrrolidine-1-sulfonamide] | 47 nM | 12% |  |
| O=C1CCC(Nc2ccc(C3CCN(CC(=O)N4CCN(c5ccc(-c6cnc7[nH]cc(C(=O)c8c(F)ccc(NS(=O)(=O)N9CCCC9)c8F)c7c6)cn5)CC4)CC3)cc2)C(=O)N1 (stereo not shown) [Example A72, N-[3-[5-[6-[4-[2-[4-[4-[(2,6-Dioxopiperidin-3-yl)amino]phenyl]piperidin-1-yl]acetyl]piperazin-1-yl]pyridin-3-yl]-1H-pyrrolo[2,3-b]pyridine-3-carbonyl]-2,4-difluorophenyl]pyrrolidine-1-sulfonamide] | 4.47 nM | 16.1% |  |
| CCN(C)S(=O)(=O)Nc1cccc(C(=O)c2c[nH]c3ncc(-c4ccc(N5CCN(C(=O)CC6(O)CCN(c7ccc(C8CCC(=O)NC8=O)cc7F)CC6)CC5)nc4)cc23)c1F (stereo not shown) [Example 159, 5-[6-[4-[2-[1-[4-(2,6-dioxo-3-piperidyl)-2-fluoro-phenyl]-4-hydroxy-4-piperidyl]acetyl]piperazin-1-yl]-3-pyridyl]-3-[3-[[ethyl(methyl)sulfamoyl]amino]-2-fluoro-benzoyl]-1H-pyrrolo[2,3-b]pyridine] | 3.51 nM | 6.33% |  |
| CCN(C)S(=O)(=O)Nc1ccc(F)c(C(=O)c2c[nH]c3ncc(-c4cnc(N5CCN(C(=O)NC6CCN(c7ccc(NC8CCC(=O)NC8=O)cc7F)CC6)CC5)nc4)cc23)c1F.O=C(O)C(F)(F)F (stereo not shown) [Example A123, N-[1-[4-[(2,6-Dioxopiperidin-3-yl)amino]-2-fluorophenyl]piperidin-4-yl]-4-[5-[3-[3-[[ethyl(methyl)sulfamoyl]amino]-2,6-difluorobenzoyl]-1H-pyrrolo[2,3-b]pyridin-5-yl]pyrimidin-2-yl]piperazine-1-carboxamide; 2,2,2-trifluoroacetic acid] | 10 nM |  | 8% |
| CCN(C)S(=O)(=O)Nc1ccc(F)c(C(=O)c2c[nH]c3ncc(-c4ccc(N5CCC(NC(=O)CN6CCC(c7ccc(NC8CCC(=O)NC8=O)cn7)CC6)CC5)nc4)cc23)c1F (stereo not shown) [Example A57, 2-[4-[5-[(2,6-dioxopiperidin-3-yl)amino]pyridin-2-yl]piperidin-1-yl]-N-[1-[5-[3-[3-[[ethyl(methyl)sulfamoyl]amino]-2,6-difluorobenzoyl]-1H-pyrrolo[2,3-b]pyridin-5-yl]pyridin-2-yl]piperidin-4-yl]acetamide;formic acid] | 33 nM | 13% |  |
| CCN(C)S(=O)(=O)Nc1ccc(F)c(C(=O)c2c[nH]c3ncc(-c4ccc(N5CCC(NCC(=O)N6CCC(c7ccc(OC8CCC(=O)NC8=O)cc7)CC6)CC5)nc4)cc23)c1F (stereo not shown) [Example A109, 5-[6-[4-[[2-[4-[4-(2,6-Dioxopiperidin-3-yl)oxyphenyl]piperidin-1-yl]-2-oxoethyl]amino]piperidin-1-yl]pyridin-3-yl]-3-[3-[[ethyl(methyl)sulfamoyl]amino]-2,6-difluorobenzoyl]-1H-pyrrolo[2,3-b]pyridine; formic acid] | 44 nM | 13% |  |
| CCN(C)S(=O)(=O)Nc1ccc(Cl)c(C(=O)c2c[nH]c3ncc(-c4cnc(N5CCN(C(=O)CC6(O)CCN(c7ccc(NC8CCC(=O)NC8=O)cc7F)CC6)CC5)nc4)cc23)c1F (stereo not shown) [Example 185, 3-[6-chloro-3-[[ethyl(methyl)sulfamoyl]amino]-2-fluoro-benzoyl]-5-[2-[4-[2-[1-[4-[(2,6-dioxo-3-piperidyl)amino]-2-fluoro-phenyl]-4-hydroxy-4-piperidyl]acetyl]piperazin-1-yl]pyrimidin-5-yl]-1H-pyrrolo[2,3-b]pyridine] | 6.48 nM | 7.43% |  |
| CCN(C)S(=O)(=O)Nc1ccc(F)c(C(=O)c2c[nH]c3ncc(-c4cnc(C5CCN(C(=O)CN6CCC(c7ccc(NC8CCC(=O)NC8=O)cc7)CC6)CC5)nc4)cc23)c1F (stereo not shown) [Example A46, 5-[2-[1-[2-[4-[4-[(2,6-Dioxopiperidin-3-yl)amino]phenyl]piperidin-1-yl]acetyl]piperidin-4-yl]pyrimidin-5-yl]-3-[3-[[ethyl(methyl)sulfamoyl]amino]-2,6-difluorobenzoyl]-1H-pyrrolo[2,3-b]pyridine] | 7.44 nM | 10.8% |  |
| CCN(C)S(=O)(=O)Nc1cccc(C(=O)c2c[nH]c3ncc(-c4ccc(N5CCN(C(=O)CC6(O)CCN(c7ccc(NC8CCC(=O)NC8=O)cc7)CC6)CC5)nc4)cc23)c1F (stereo not shown) [Example 109, 5-[6-[4-[2-[1-[4-[(2,6-dioxo-3-piperidyl)amino]phenyl]-4-hydroxy-4-piperidyl]acetyl]piperazin-1-yl]-3-pyridyl]-3-[3-[[ethyl(methyl)sulfamoyl]amino]-2-fluoro-benzoyl]-1H-pyrrolo[2,3-b]pyridine] | 5.49 nM | 10.8% |  |
| CCN(C)S(=O)(=O)Nc1ccc(F)c(C(=O)c2c[nH]c3ncc(-c4cnc(N5CCC(CC(=O)N6CCC(c7ccc(N8CCC(=O)NC8=O)cc7)CC6)CC5)nc4)cc23)c1F [Example A113, 5-[2-[4-[2-[4-[4-(2,4-Dioxo-1,3-diazinan-1-yl)phenyl]piperidin-1-yl]-2-oxoethyl]piperidin-1-yl]pyrimidin-5-yl]-3-[3-[[ethyl(methyl)sulfamoyl]amino]-2,6-difluorobenzoyl]-1H-pyrrolo[2,3-b]pyridine] | 53 nM | 33% |  |
